Literature values as cited in patent publication US20220361462A1, “ANIMAL MODEL FOR NEURODEGENERATIVE DISORDERS” (NEURO-BIO LTD, priority 2019, published 2022).
No end group written: not given here.

Tested on: cell lines
Settings: previously shown by the inventors

NBP-14: candidate modulator of the α7-nAChR, the cyclized form of T14, cyclic SEQ ID No:4 (AEFHRWSSYMVHWK; not fully specified; also: cyclised, mode not given here; listed as Homo sapiens)
effect on AD-like phenotype promoted by AChE-derived peptide on cell lines: blocked
